Values of other authors in PubChem BioAssay AID1259409 (Chemical Carcinogenesis Research Information System (CCRIS), 2018).

System: rodent chemically induced tumor inhibition, incidence and multiplicity
Assay: CCRIS tumor inhibitor studies

CS(=O)CCCCN=C=S (centres undefined)
tumour outcome (control, treated, inhibition, significance) (Carcinogen: 4-(METHYLNITROSAMINO)-1-(3-PYRIDYL)-1-BUTANONE (NNK) [64091-91-4], Dose [Inhibitor]: 1.5 UM/G DIET, BEGINNING 13 WKS AFTER CARCINOGEN/PROMOTER TREATMENT (STUDY DURATION: 42 WK), Route [Inhibitor]: DIET, Species: MOUSE, Strain/Sex: A/J/FEMALE (39,?)/(20,?), Target Tissue: Type of Lesion: LUNG: ADENOCARCINOMA, Dose [Carcinogen]: 3 µM WEEKLY FOR 8 DOSES, Promoter: BENZO[A]PYRENE [50-32-8]): 42%, 20%, 52%, not significant | tumour outcome (control, treated, inhibition, significance) (Carcinogen: 4-(METHYLNITROSAMINO)-1-(3-PYRIDYL)-1-BUTANONE (NNK) [64091-91-4], Dose [Inhibitor]: 1.5 UM/G DIET, BEGINNING 13 WKS AFTER CARCINOGEN/PROMOTER TREATMENT (STUDY DURATION: 42 WK), Route [Inhibitor]: DIET, Species: MOUSE, Strain/Sex: A/J/FEMALE (39,?)/(20,?), Target Tissue: Type of Lesion: LUNG: ADENOMA, Dose [Carcinogen]: 3 µM WEEKLY FOR 8 DOSES, Promoter: BENZO[A]PYRENE [50-32-8]): 100%, 100%, 0%, not significant | tumour outcome (control, treated, inhibition, significance) (Carcinogen: 4-(METHYLNITROSAMINO)-1-(3-PYRIDYL)-1-BUTANONE (NNK) [64091-91-4], Dose [Inhibitor]: 3 UM/G DIET, BEGINNING 13 WKS AFTER CARCINOGEN/PROMOTER TREATMENT (STUDY DURATION: 42 WK), Route [Inhibitor]: DIET, Species: MOUSE, Strain/Sex: A/J/FEMALE (39,?)(32,?), Target Tissue: Type of Lesion: LUNG: ADENOCARCINOMA, Dose [Carcinogen]: 3 µM WEEKLY FOR 8 DOSES, Promoter: BENZO[A]PYRENE [50-32-8]): 42%, 28%, 33%, not significant | tumour outcome (control, treated, inhibition, significance) (Carcinogen: 4-(METHYLNITROSAMINO)-1-(3-PYRIDYL)-1-BUTANONE (NNK) [64091-91-4], Dose [Inhibitor]: 3 UM/G DIET, BEGINNING 13 WKS AFTER CARCINOGEN/PROMOTER TREATMENT (STUDY DURATION: 42 WK), Route [Inhibitor]: DIET, Species: MOUSE, Strain/Sex: A/J/FEMALE (39,?)/(32,?), Target Tissue: Type of Lesion: LUNG: ADENOMA, Dose [Carcinogen]: 3 µM WEEKLY FOR 8 DOSES, Promoter: BENZO[A]PYRENE [50-32-8]): 100%, 93%, 7%, not significant | tumour outcome (control, treated, inhibition, significance) (Carcinogen: 7,12-DIMETHYLBENZ[A]ANTHRACENE, 57-97-6, Dose [Inhibitor]: 0, 75 UMOL/D IN 0.5 ML EMULPHOR EL-620 FOR 5 CONSECUTIVE DAYS BEGINNING AT 47 D OF AGE (STUDY DURATION: 155 D), Route [Inhibitor]: GAVAGE, Species: RAT, Strain/Sex: SPRAGUE-DAWLEY/FEMALE, Target Tissue: Type of Lesion: MAMMARY GLAND: TUMOR, Dose [Carcinogen]: 8 MG IN 1 ML SESAME OIL ONCE AT 50 D OF AGE, Promoter: NONE USED): 17/25 (68%), 7/20 (35%), 49%, p<0.05 | tumour outcome (control, treated, inhibition, significance) (Carcinogen: 7,12-DIMETHYLBENZ[A]ANTHRACENE, 57-97-6, Dose [Inhibitor]: 0, 150 UMOL/D IN 0.5 ML EMULPHOR EL-620 FOR 5 CONSECUTIVE DAYS BEGINNING AT 47 D OF AGE (STUDY DURATION: 155 D), Route [Inhibitor]: GAVAGE, Species: RAT, Strain/Sex: SPRAGUE-DAWLEY/FEMALE, Target Tissue: Type of Lesion: MAMMARY GLAND: TUMOR, Dose [Carcinogen]: 8 MG IN 1 ML SESAME OIL ONCE AT 50 D OF AGE, Promoter: NONE USED): 17/25 (68%), 5/19 (26%), 62%, p<0.05

S=C=NCCCCCc1ccccc1
tumour outcome (control, treated, inhibition, significance) (Carcinogen: 4-(METHYLNITROSAMINO)-1-(3-PYRIDYL)-1-BUTANONE, 64091-91-4, Dose [Inhibitor]: 0, 0.2 UMOL 1/D FOR 4 D ADMINISTERED PRIOR TO CARCINOGEN TREATMENT (STUDY DURATION: 116 D), Route [Inhibitor]: GAVAGE, Species: MOUSE, Strain/Sex: STRAIN A, Target Tissue: Type of Lesion: LUNG: ADENOMA, Dose [Carcinogen]: 10 UMOL ONCE 2 HR AFTER FINAL DOSE OF INHIBITOR, Promoter: NONE USED): 100%, 100%, 0%, not significant | tumour outcome (control, treated, inhibition, significance) (Carcinogen: 4-(METHYLNITROSAMINO)-1-(3-PYRIDYL)-1-BUTANONE, 64091-91-4, Dose [Inhibitor]: 0, 1 UMOL 1/D FOR 4 D ADMINISTERED PRIOR TO CARCINOGEN TREATMENT (STUDY DURATION:116 D), Route [Inhibitor]: GAVAGE, Species: MOUSE, Strain/Sex: STRAIN A, Target Tissue: Type of Lesion: LUNG: ADENOMA, Dose [Carcinogen]: 10 UMOL ONCE 2 HR AFTER FINAL DOSE OF INHIBITOR, Promoter: NONE USED): 100%, 53%, 47%, p<0.05 | tumour outcome (control, treated, inhibition, significance) (Carcinogen: 4-(METHYLNITROSAMINO)-1-(3-PYRIDYL)-1-BUTANONE, 64091-91-4, Dose [Inhibitor]: 0, 5 UMOL 1/D FOR 4 D ADMINISTERED PRIOR TO CARCINOGEN TREATMENT (STUDY DURATION: 116 D), Route [Inhibitor]: GAVAGE, Species: MOUSE, Strain/Sex: STRAIN A, Target Tissue: Type of Lesion: LUNG: ADENOMA, Dose [Carcinogen]: 10 UMOL ONCE 2 HR AFTER FINAL DOSE OF INHIBITOR, Promoter: NONE USED): 100%, 25%, 75%, p<0.05
